Test results taken from ChEMBL document CHEMBL3885861, “Open TG-GATES”.

Species on record: Rattus norvegicus
Experiment: Open TG-GATES - Regimen: Daily Repeat
Assay type: toxicity, organism-based, Sprague-Dawley
Design: regimen Daily Repeat, gender Male, age 6 weeks
Settings: in vivo, po, 4000 mg/kg, route gavage, dose level High; for APTT / Bas / Eos / Fbg / Hb / Ht / Lym / MCH / MCHC / MCV / Mono / Neu / PT / Plat / RBC / Ret / WBC: tissue Blood; for KIDNEY_L / KIDNEY_R / KIDNEY_TOTAL: tissue Kidney; for LIVER: tissue Liver; for A/G / ALP / ALT / AST / BUN / CRE / Ca / Cl / DBIL / GLC / IP / K / LDH / Na / PL / RALB / TBIL / TC / TG / TP / gamma-GTP: tissue Plasma

## CCO [ALCOHOL]
72 h, time 3 day
  TERMINAL_BW: 222.6 g
  APTT: 17.5 s
  Bas: 0%
  Eos: 1.4%
  Fbg: 223.4 mg/dL
  Hb: 14 g/dL
  Ht: 41.5%
  Lym: 78%
  MCH: 20.9 pg
  MCHC: 33.7%
  MCV: 62.1 fL
  Mono: 5.6%
  Neu: 15.8%
  PT: 11.3 s
  Plat: 129.6 x10_4/uL
  RBC: 669.2 x10_4/ul
  Ret: 5.5%
  WBC: 91 x10_2/uL
  KIDNEY_L: 1 g
  KIDNEY_R: 1 g
  KIDNEY_TOTAL: 2 g
  LIVER: 10.5 g
  A/G: 2.3
  ALP: 775 IU/L
  ALT: 32 IU/L
  AST: 61 IU/L
  BUN: 16.8 mg/dL
  CRE: 0.5 mg/dL
  Ca: 10.7 mg/dL
  Cl: 103.6 meq/L
  DBIL: 0.022 mg/dL
  GLC: 206 mg/dL
  IP: 8.2 mg/dL
  K: 4.7 meq/L
  LDH: 95.2 IU/L
  Na: 140 meq/L
  PL: 146.4 mg/dL
  RALB: 4 g/dL
  TBIL: 0.3 mg/dL
  TC: 77.6 mg/dL
  TG: 124.4 mg/dL
  TP: 5.7 g/dL
  gamma-GTP: 1.4 IU/L
[…], time 7 day
  TERMINAL_BW: 252.2 g
  APTT: 18.2 s
  Bas: 0%
  Eos: 1%
  Fbg: 216.8 mg/dL
  Hb: 14.1 g/dL
  Ht: 41.6%
  Lym: 71%
  MCH: 20.7 pg
  MCHC: 33.8%
  MCV: 61.1 fL
  Mono: 6.4%
  Neu: 21.8%
  PT: 11.5 s
  Plat: 110.2 x10_4/uL
  RBC: 680.2 x10_4/ul
  Ret: 5.4%
  WBC: 93.3 x10_2/uL
  KIDNEY_L: 1.1 g
  KIDNEY_R: 1.1 g
  KIDNEY_TOTAL: 2.1 g
  LIVER: 11.7 g
  A/G: 2.4
  ALP: 842.2 IU/L
  ALT: 32.6 IU/L
  AST: 63 IU/L
  BUN: 17 mg/dL
  CRE: 0.5 mg/dL
  Ca: 10.6 mg/dL
  Cl: 103.8 meq/L
  DBIL: 0 mg/dL
  GLC: 206.8 mg/dL
  IP: 8.1 mg/dL
  K: 4.4 meq/L
  LDH: 92.2 IU/L
  Na: 141.2 meq/L
  PL: 145.6 mg/dL
  RALB: 4.1 g/dL
  TBIL: 0.3 mg/dL
  TC: 68.2 mg/dL
  TG: 99.6 mg/dL
  TP: 5.9 g/dL
  gamma-GTP: 1.4 IU/L
[…], time 14 day
  TERMINAL_BW: 307.3 g
  APTT: 16.8 s
  Bas: 0%
  Eos: 0.8%
  Fbg: 217.6 mg/dL
  Hb: 15 g/dL
  Ht: 45%
  Lym: 82.8%
  MCH: 20.4 pg
  MCHC: 33.3%
  MCV: 61.2 fL
  Mono: 5%
  Neu: 11.4%
  PT: 11.5 s
  Plat: 112.1 x10_4/uL
  RBC: 737 x10_4/ul
  Ret: 4.1%
  WBC: 125 x10_2/uL
  KIDNEY_L: 1.2 g
  KIDNEY_R: 1.2 g
  KIDNEY_TOTAL: 2.5 g
  LIVER: 13.6 g
  A/G: 1.9
  ALP: 806.4 IU/L
  ALT: 37.8 IU/L
  AST: 71.4 IU/L
  BUN: 18.6 mg/dL
  CRE: 0.6 mg/dL
  Ca: 10.8 mg/dL
  Cl: 104.2 meq/L
  DBIL: 0.05 mg/dL
  GLC: 207.2 mg/dL
  IP: 7.9 mg/dL
  K: 4.5 meq/L
  LDH: 121.4 IU/L
  Na: 141.6 meq/L
  PL: 160.8 mg/dL
  RALB: 3.9 g/dL
  TBIL: 0.3 mg/dL
  TC: 78.8 mg/dL
  TG: 143 mg/dL
  TP: 6 g/dL
  gamma-GTP: 1 IU/L
[…], time 28 day
  TERMINAL_BW: 369.5 g
  APTT: 16.3 s
  Bas: 0%
  Eos: 1.6%
  Fbg: 210.6 mg/dL
  Hb: 15.5 g/dL
  Ht: 46.4%
  Lym: 70.4%
  MCH: 19.2 pg
  MCHC: 33.5%
  MCV: 57.2 fL
  Mono: 7.6%
  Neu: 20.6%
  PT: 11.4 s
  Plat: 106.5 x10_4/uL
  RBC: 813.2 x10_4/ul
  Ret: 6%
  WBC: 123.4 x10_2/uL
  KIDNEY_L: 1.3 g
  KIDNEY_R: 1.3 g
  KIDNEY_TOTAL: 2.7 g
  LIVER: 15 g
  A/G: 1.8
  ALP: 599.4 IU/L
  ALT: 34.6 IU/L
  AST: 66.6 IU/L
  BUN: 19.6 mg/dL
  CRE: 0.6 mg/dL
  Ca: 10.3 mg/dL
  Cl: 107 meq/L
  DBIL: 0.006 mg/dL
  GLC: 213.6 mg/dL
  IP: 6.2 mg/dL
  K: 4.5 meq/L
  LDH: 89.6 IU/L
  Na: 140.4 meq/L
  PL: 153.6 mg/dL
  RALB: 3.9 g/dL
  TBIL: 0.3 mg/dL
  TC: 73.2 mg/dL
  TG: 173.4 mg/dL
  TP: 6.1 g/dL
  gamma-GTP: 1.4 IU/L
